Test results published in US4100117A, “Somatostatin analogs and intermediates thereto” (Eli Lilly and Company, priority 1977, dated 1978).
Where a SMILES comes first, the peptide text is derived from it. Bridges are numbered along the chain shown (N, C = ends). [ ]: non-standard residue; d: D form.

Assays:
[1] = system: gut motility (pylorus, duodenum, antrum pressure); assay: action on gut motility in conscious dogs (intralumenal pressure); assay type: in vivo, dog; settings: three conscious dogs; intravenous infusion over ten minutes
Description: D-Val^1 -somatostatin also was tested for its action on gut motility in conscious dogs. Three dogs having intralumenal catheters placed in the antrum, duodenum, and pylorus were used. Pressure changes in the gut lumen were recorded on a Visicorder using strain gauges and miniature light beam galvanometers. After a steady state control was established, D-Val^1 -somatostatin was infused intravenously over a ten minute period. […] The minimum effective dose required to increase the pyloric pressure and to decrease the duodenum and antrum pressures was <0.125 μg./kg.-10 minutes. This compares to an activity for somatostatin itself of 0.125 to 0.25 μg./kg.-10 minutes.

[2] = system: growth hormone secretion; assay: inhibition of pentobarbital-stimulated growth hormone release in rats; assay type: in vivo, rat; settings: serum GH 20 minutes after dosing
Description: D-Val^1 -somatostatin also was tested for its activity with respect to the release of growth hormone. The procedure which was employed is carried out using normal male SpragueDawley rats weighing 100-120 grams (Laboratory Supply Company, Indianapolis, Indiana). The test is a modification of the method of P. Brazeau, W. Vale, and R. Guilleman, Endocrinology, 94 184 (1974). In this assay, five groups of eight rats each were employed. Sodium pentobarbital was administered intraperitoneally to all of the rats to stimulate growth hormone secretion. One group served as the control and received only saline. Two of the groups received somatostatin, one at 2 μg./rat, subcutaneously, and the other at 50 μg./rat, subcutaneously. The other two groups received D-Val^1 -somatostatin, one at 2 μg./rat, subcutaneously, and the other at 50 μg./rat, subcutaneously. The serum concentration of growth hormone was measured 20 minutes after simultaneous administration of sodium pentobarbital and test compound. The degree of inhibition of serum growth hormone concentration then was determined with respect to the control group, and the relative activities of D-Val^1 -somatostatin and somatostatin itself were compared.

[3] = system: gastric HCl secretion induced by the C-terminal tetrapeptide of gastrin; assay: in vivo inhibition of gastric acid secretion in dogs with chronic fistula and Heidenhain pouch; set-up: species or system dog
Description: D-Val^1 -somatostatin was tested in dogs for its in vivo inhibition of gastric acid secretion. In six dogs with chronic fistula and Heidenhain pouch, gastric HCl secretion was induced by infusion of the C-terminal tetrapeptide of gastrin at 0.5 μg/kg-hr. Each dog served as its own control, receiving on a separate day only the tetrapeptide. On another day, the six dogs received the tetrapeptide, and, after one hour of steady state secretion of HCl, D-Val^1 -somatostatin was infused at 0.75 μg/kg-hr. for one hour. Collection of gastric acid samples was continued for an additional 1.5 hours at 15 minute intervals. The samples were titrated to pH 7 with an automatic titrator. The maximal inhibitory effect of the D-Val^1 -somatostatin was extrapolated against the dose-response curve of somatostatin, and the relative potency of the analog to that of somatostatin is expressed as percent activity. D-Val^1 -somatostatin inhibited steady state acid secretion induced by the C-terminal tetrapeptide of gastrin by 85.1 ± 6.0% standard error of mean. This effect is equivalent to that of 0.935 μg/kg-hr. of somatostatin. Its activity relative to that of somatostatin thus is 125%.

[4] = system: secretion from the pancreas induced by secretin and cholecystokinin; assay: inhibition of pancreatic secretion in dogs with pancreatic and total gastric fistula; assay type: in vivo, dog; settings: three dogs; 0.75 μg/kg-hr. for one hour
Description: In three dogs having both pancreatic and total gastric fistula, secretion from the pancreas was induced by infusion of secretin at 2 units/kg-hr. and cholecystokinin at 0.45 unit/kg-hr., and secretion of gastric HCl by infusion of tetragastrin at 0.5 μg/kg-hr. After a steady response was established, each dog received D-Val^1 -somatostatin for one hour at 0.75 μg/kg-hr. The peak inhibitory effect expressed as percent change over control for total protein was -51%

CC(C)[C@@H](N)C(=O)NCC(=O)N[C@H]1CSSC[C@@H](C(=O)O)NC(=O)[C@H](CO)NC(=O)[C@H]([C@@H](C)O)NC(=O)[C@H](Cc2ccccc2)NC(=O)[C@H]([C@@H](C)O)NC(=O)[C@H](CCCCN)NC(=O)[C@H](Cc2c[nH]c3ccccc23)NC(=O)[C@H](Cc2ccccc2)NC(=O)[C@H](Cc2ccccc2)NC(=O)[C@H](CC(N)=O)NC(=O)[C@H](CCCCN)NC1=O [D-Val^1 -somatostatin] (H-[dV]GCKNFFWKTFTSC-OH; disulfide 3-14)
effect on intralumenal pressure [1]: initially increased the intralumenal pressure in the pylorus and then decreased it whereas the pressure in the duodenum and the antrum remained depressed throughout the test
minimum effective dose required to increase the pyloric pressure and to decrease the duodenum and antrum pressures [1]: < 0.125 μg./kg.-10 minutes
inhibition of the increase in growth hormone secretion over control ([2]; 2 μg./rat subcutaneously): 2%
inhibition of the increase in growth hormone secretion over control ([2]; 50 μg./rat subcutaneously): 73%
equivalent dose of somatostatin giving the same effect ([3]; extrapolated against the dose-response curve of somatostatin, analog at 0.75 μg/kg-hr.): 0.935 μg/kg-hr.
activity relative to that of somatostatin ([3]; gastric acid secretion, dogs): 125%
inhibition of steady state acid secretion induced by the C-terminal tetrapeptide of gastrin ([3]; six dogs, infused at 0.75 μg/kg-hr. for one hour, maximal inhibitory effect, ± standard error of mean): 85.1 ± 6.0%
peak inhibitory effect expressed as percent change over control for total protein [4]: -51%
